Source: patent US8822698B2, “Aminoacid derivatives, their process of preparation and their therapeutical uses as inhibitors of oncogenic signals by the Met family” (Universite D'Aix-Marseille, priority 2009, dated 2014)
Read-outs that look alike come from different tables or passages of the source.

How the values were obtained:
MDCK cells = experiment: Toxicity observed in the cell scattering screening; format: cell-based
Experimental: (§1) For scattering assays, MDCK cells were pre-incubated with compounds for 2 hours at 0.1-100 μM concentrations at 37° C. in a humidified atmosphere of 5% CO2, followed by 24 hr stimulation with 20 ng/ml HGF (R&D Systems), as previously described (Patane et al., Biochem Biophys Res Commun 375, 184-189, 2008). The cells were further incubated at 37° C. in an atmosphere of 5% CO2 for 24-48 hours, washed with phosphate-buffered saline (PBS; Gibco BRL), and fixed in PFA (Sigma). The quantification of scattering response was performed by counting the number of cells with scattered morphology in 30 independent colonies. The […] corresponds to the concentration of compounds leading to a 50% inhibition of Met-triggered cell scattering. Active compounds were assayed to impair scattering response also on human breast MCF10A cells following the same procedure. For survival assays, GTL-16, HepG2 and U-87 cells were cultured in serum-free media for 24 hours prior to compound addition for 48 hours. Viability was assessed with the Cell Titer Glo Luminescent Assay (Promega). For in vitro tumorigenesis, soft agar growth assays were preformed using GTL-16, HepG2, and U-87 cells, as previously described (Patane et al., Cancer Res 66, 4750-4757, 2006).
Compounds of examples 1 (XIII), 2 (XIV), 4 (XVI), 5 (XVII), and 6 (XVIII) in particular elicit inhibitory activity on Met-triggered cell scattering. […] The SU11274 (Met inhibitor; Sugen) was used as reference compound. […] These findings were further supported by analysing the inhibitory activity of compounds on breast cells. […] Altogether, these studies identify a new class of compounds of general formula (I), which are able to interfere with Met-triggered cell scattering.

[1] = system: Met-triggered cell scattering, MDCK cells; experiment: HGF-induced MDCK cell scattering assay; format: cell-based; conditions: Canis lupus familiaris
Experimental: (§2) MDCK cells were grown in Dulbecco's modified Eagle's medium (DMEM) (Gibco BRL) containing 4 mM L-glutamine and supplemented with 2% (v/v) foetal bovine serum (Gibco BRL), 100 U/mL penicillin, and 100 μg/mL streptomycin. Cells were plated at a density of 1000 cells per well in 24-well microplates and allowed to settle overnight at 37° C. in a humidified atmosphere of 5% CO2 prior to treatments. MCF10A human breast cells, MDA-MB231 human breast cancer cells, GTL-16 human gastric carcinoma cells, HepG2 human hepatocellular carcinoma cells, U-87 human glioblastoma-astrocytoma cells and LLC Lewis lung carcinoma cells were grown in RPMI medium (Gibco BRL) containing 4 mM L-glutamine and supplemented with 2% (v/v) foetal bovine serum (Gibco BRL), 100 U/mL penicillin, and 100 μg/mL streptomycin and kept at 37° C. in a humidified atmosphere of 5% CO2.
as §1
Compounds were first submitted to a biological screening of cell motility, namely scattering response. MDCK epithelial cells acquire a “scattered phenotype” following stimulation by the Met ligand, HGF (Chan et al., J Biomol Screen. 13, 847-854, 2008; Corso et al., Trends Mol Med 11, 284-292, 2005; Patane et al., Biochem Biophys Res Commun 375, 184-189, 2008), allowing direct evaluation of compounds on Met functions. The Met inhibitor […] was used as control in all assays (Schiering et al., Proc Natl Acad Sci USA 100, 12654-12659, 2003).

HepG2 cells = experiment: Soft agar anchorage-independent growth (in vitro tumorigenesis), HepG2; format: cell-based; conditions: Homo sapiens, read-out: HepG2 IC 50
Experimental: as §2
For scattering assays, MDCK cells were pre-incubated with compounds for 2 hours at 0.1-100 μM concentrations at 37° C. in a humidified atmosphere of 5% CO2, followed by 24 hr stimulation with 20 ng/ml HGF (R&D Systems), as previously described (Patane et al., Biochem Biophys Res Commun 375, 184-189, 2008). […] The quantification of scattering response was performed by counting the number of cells with scattered morphology in 30 independent colonies. […] Viability was assessed with the Cell Titer Glo Luminescent Assay (Promega). […]

[2] = system: Met phosphorylation, HepG2 cells; experiment: Met phosphorylation upon HGF stimulation in HepG2 cells; format: cell-based, human
Experimental: After starvation, cells were pretreated with inhibitors, then stimulated with HGF, and total extracts were analyzed as described (Maina et al., Mol Cell 7, 1293-1306, 2001). Antibodies used were anti-tubulin (Sigma), anti-phospho Y1234-1235-Met, anti-Akt, anti-phospho-Akt, anti-phospho-Gab1, anti phosphor-ErbBs, anti-phospho-PDGFR, anti-PDGFRs, anti-ERKs (Cell Signaling), anti-ErbBs, anti-Met (Santa Cruz).
Activation of Met by HGF can be biochemically evaluated by following its phosphorylation levels and activation of downstream targets. We started to biochemically characterise the inhibitory properties of identified compounds by following Met phosphorylation and its downstream targets in HepG2 cells. […] These findings were further supported using other cell lines, such as MDA-MB231 human breast cancer cells (FIG. 2).

GTL-16 cells [3] = conditions: Zou et al., 2007; cited from earlier work
GTL-16 cells [4] = experiment: Soft agar anchorage-independent growth (in vitro tumorigenesis), GTL-16; format: cell-based, human; conditions: Homo sapiens; soft agar growth, GTL-16
Experimental: as §2
as §1, with “2006). […]” for “2006).”

[5] = MDCK cells, 20 ng/ml HGF, read-out: IC50 scattering inhibition

C[C@@H](NC(=O)Cc1cc(F)cc(F)c1)C(=O)Nc1ccc(-c2cn3c4c(sc3n2)CCCC4)cc1 [reference compound]
Toxicity (MDCK cells; comparative compound, toxic at this concentration): at 100 μM | IC50 ([1]; MDCK, comparative compound, same test, read-out: Scattering inhibition): 10000 nM

O=C(Cc1cc(F)cc(F)c1)N[C@@H](Cc1ccccc1)C(=O)Nc1ccc(-c2cn3c(n2)sc2ccccc23)cc1 [Example 6]
Toxicity (MDCK cells; Table 1, scattering screening): >100 µM

Cc1cc(C)cc(CC(=O)N[C@@H](Cc2ccccc2)C(=O)Nc2ccc(-c3cn4c(n3)sc3ccccc34)cc2)c1 [Example 1, (S)-2-(3,5-dimethylphenylacetamido)-3-phenyl-N-[4-(imidazo[2,1-b]benzothiazol-2-yl)phenyl]propanamide]
IC50 (HepG2 cells): 2730 nM | Met phosphorylation [2]: significantly reduced | Toxicity (MDCK cells; Table 1, scattering screening): >100 µM

Cc1[nH]c(/C=C2\C(=O)Nc3ccc(S(=O)(=O)N(C)c4cccc(Cl)c4)cc32)c(C)c1C(=O)N1CCN(C)CC1 [SU11274, (3Z)—N-(3-Chlorophenyl)-3-({3,5-dimethyl-4-[(4-methylpiperazin-1-yl)carbonyl]-1H-pyrrol-2-yl}methylene)-N-methyl-2-oxo-2,3-dihydro-1H-indole-5-sulfonamide, reference compound]
Soft-agar growth of GTL-16 cells (GTL-16 cells [3]): impaired | IC50 [1, 5]: 251 nM

Cc1cc(C)cc(CC(=O)N[C@H](Cc2ccccc2)C(=O)Nc2ccc(-c3cn4c(n3)sc3ccccc34)cc2)c1 [Example 2, (R)-2-(3,5-dimethylphenylacetamido)-3-phenyl-N-[4-(imidazo[2,1-b]benzothiazol-2-yl)phenyl]propanamide]
Toxicity (MDCK cells; Table 1, scattering screening): >100 µM

O=C(Cc1cc(C(F)(F)F)cc(C(F)(F)F)c1)N[C@H](Cc1ccccc1)C(=O)Nc1ccc(-c2cn3c(n2)sc2ccccc23)cc1 [Example 5, (R)-2-(3,5-bis(trifluoromethyl)phenylacetamido)-3-phenyl-N-[4-(imidazo[2,1-b]benzothiazol-2-yl)phenyl]propanamide]
Toxicity (MDCK cells; Table 1, scattering screening): >50 µM | IC50 [1, 5]: 206 nM | IC50 (GTL-16 cells [4]): 1190 nM
